PubChem BioAssay AID328 (DTP/NCI, 2004)
Values joined by “and” are separate entries in the source; they are usually repeats but may differ in a detail not shown here. Identical values can stand only once. Toxic doses and inconclusive results are not listed. The calls were made as follows: active = survival T/C of 150% or more; inactive = T/C below 125% in these data.

Test system: BDF1 mice, P388 leukemia ip, median survival T/C
Assay: NCI In Vivo Anticancer Drug Screen. Data for tumor model P388 Leukemia (intraperitoneal) in B6D2F1 (BDF1) mice
Details: endpoint: median survival time, higher = longer survival
Procedure, shortened: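 Each value expresses how treatment altered survival: treated-mouse outcome over vehicle-mouse outcome, both groups bearing the transplanted tumour.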

[1] = dose: 12.5 mg/kg/injection, schedule: Q01DX009 (ip), vehicle: saline with Tween-80
[2] = dose: 25.0 mg/kg/injection, schedule: Q01DX009 (ip), vehicle: saline with Tween-80
[3] = dose: 50.0 mg/kg/injection, schedule: Q01DX009 (ip), vehicle: saline with Tween-80
[4] = dose: 100.0 mg/kg/injection, schedule: Q01DX009 (ip), vehicle: saline with Tween-80
[5] = dose: 200.0 mg/kg/injection, schedule: Q01DX009 (ip), vehicle: saline with Tween-80
[6] = dose: 50.0 mg/kg/injection, schedule: Q01DX009 (ip), vehicle: saline

Measured: T/C

N#Cc1nc(C#N)c(Sc2ccccc2)c(Sc2ccccc2)c1Sc1ccccc1
inactive: [1] 101 % of control and 110 % of control | [2] 100 % of control and 103 % of control | [3] 121 % of control and 122 % of control

O=C(NC1CCOC1=O)OCc1ccccc1 (stereo not given)
inactive: [3] 100 % of control | [4] 100 % of control | [5] 100 % of control | dose: 400.0 mg/kg/injection, schedule: Q01DX009 (ip), vehicle: saline with Tween-80 98 % of control

COc1cccc(S(=O)(=O)c2ccc([N+](=O)[O-])c3nonc23)c1
inactive: [1] 111 % of control | [2] 111 % of control

Nc1ccn(C2OC(COP(=O)(O)O)C(O)C2O)c(=O)n1 (stereo not given)
inactive: dose: 4.2 mg/kg/injection, schedule: Q04DX003 (ip), vehicle: saline with Tween-80 113 % of control | dose: 6.3 mg/kg/injection, schedule: Q04DX003 (ip), vehicle: saline with Tween-80 113 % of control | [5] 112 % of control
active: dose: 9.6 mg/kg/injection, schedule: Q04DX003 (ip), vehicle: saline 150 % of control | dose: 50.0 mg/kg/injection, schedule: Q04DX003 (ip), vehicle: saline 159 % of control | dose: 75.0 mg/kg/injection, schedule: Q04DX003 (ip), vehicle: saline 172 % of control | [4] 187 % of control | dose: 115.0 mg/kg/injection, schedule: Q04DX003 (ip), vehicle: saline with Tween-80 172 % of control | dose: 175.0 mg/kg/injection, schedule: Q04DX003 (ip), vehicle: saline with Tween-80 168 % of control | dose: 264.0 mg/kg/injection, schedule: Q04DX003 (ip), vehicle: saline with Tween-80 181 % of control | dose: 400.0 mg/kg/injection, schedule: Q04DX003 (ip), vehicle: saline with Tween-80 154 % of control | dose: 600.0 mg/kg/injection, schedule: Q04DX003 (ip), vehicle: saline with Tween-80 177 % of control

CCCCCCC(N)C(C)=O (stereo not given)
inactive: [6] 93 % of control | dose: 100.0 mg/kg/injection, schedule: Q01DX009 (ip), vehicle: saline 95 % of control

COc1cccc2c1N=C1CCCC3CN(C(C)=O)CCC123 (stereo not given)
inactive: [3] 99 % of control | [4] 103 % of control | [5] 99 % of control

NC1CSSC1
inactive: dose: 0.39 mg/kg/injection, schedule: Q01DX009 (ip), vehicle: water 93 % of control and 108 % of control | dose: 1.56 mg/kg/injection, schedule: Q04DX003 (ip), vehicle: water 97 % of control | dose: 3.12 mg/kg/injection, schedule: Q04DX003 (ip), vehicle: water 106 % of control | dose: 6.25 mg/kg/injection, schedule: Q01DX009 (ip), vehicle: water 91 % of control and 94 % of control and 96 % of control | dose: 6.25 mg/kg/injection, schedule: Q04DX003 (ip), vehicle: water 105 % of control

CS(C)=O.CS(C)=O.[Cl][Rh]([Cl])([Cl])[Cl]
active: [6] 166 % of control
inactive: dose: 12.5 mg/kg/injection, schedule: Q01DX009 (ip), vehicle: saline 120 % of control | dose: 22.0 mg/kg/injection, schedule: Q01DX009 (ip), vehicle: saline 116 % of control and 120 % of control | dose: 33.0 mg/kg/injection, schedule: Q01DX009 (ip), vehicle: saline 95 % of control and 116 % of control

CN1CCN(C(=O)Nc2ccc(N=Nc3ccccc3)cc2)CC1
inactive: dose: 4.16 mg/kg/injection, schedule: Q01DX009 (ip), vehicle: saline with Tween-80 100 % of control | dose: 6.25 mg/kg/injection, schedule: Q01DX009 (ip), vehicle: saline with Tween-80 90 % of control | dose: 9.38 mg/kg/injection, schedule: Q01DX009 (ip), vehicle: saline with Tween-80 90 % of control | dose: 50.0 mg/kg/injection, schedule: Q04DX003 (ip), vehicle: saline sonified 95 % of control | dose: 100.0 mg/kg/injection, schedule: Q04DX003 (ip), vehicle: saline sonified 100 % of control
